tested on: HBV rcDNA in HepDE19 cells; assay: HepDE19 assay with bDNA quantitation of HBV rcDNA; format: cell-based, hepatitis B virus (HBV); details: Hepatitis B virus, HepDE19, 168 h, inhibition of rcDNA formation in HepDE19 cells (HepG2 derived), Tet-free medium, 7 day incubation, Quantigene 2.0 bDNA readout, top concentration 25 μM; read-out: DE-19bDNA EC50
In short: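 Cytotoxicity run on replicate plates (5,000 cells/well, 4 days, ATP luminescence, CC50), while antiviral plates (50,000 cells/well) received compound for 7 days after tetracycline withdrawal to induce HBV replication. Top dose 25 μM, 8 points, 0.5% DMSO; rcDNA by branched-DNA assay, % inhibition fitted (4-parameter) for EC50 and EC90.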

Point of comparison: COc1nc2c(c3ccccc13)C(N(C)C(=O)Nc1ccc(F)c(Cl)c1)CCC2 (stereo not shown) [Compound 34, 3-(3-Chloro-4-fluorophenyl)-1-(6-methoxy-1,2,3,4-tetrahydrophenanthridin-1-yl)-1-methylurea], EC50 1.8 µM. Against it:
- CN(C(=O)Nc1ccc(F)c(C(F)F)c1)[C@@H]1COCc2c1c1cc(F)c(F)cc1c(=O)n2C [Compound 233, (S)-1-(8,9-Difluoro-5-methyl-6-oxo-1,4,5,6-tetrahydro-2H-pyrano[3,4-c]isoquinolin-1-yl)-3-(3-(difluoromethyl)-4-fluorophenyl)-1-methylurea] — 90-fold lower, 0.02 µM
- O=C(Nc1ccc(F)c(Cl)c1)N(CCCO)C1CCCc2[nH]c(=O)c3ccccc3c21 (stereo not shown) [Compound 7, 3-(3-Chloro-4-fluorophenyl)-1-(3-hydroxypropyl)-1-(6-oxo-1,2,3,4,5,6-hexahydrophenanthridin-1-yl)urea] — 2.4-fold lower, 0.75 µM
- CN(C(=O)N1Cc2ccc(Br)cc2C1)[C@@H]1COCc2[nH]c(=O)c3cc(F)c(F)cc3c21 [Compound 220, (S)-5-Bromo-N-(8,9-difluoro-6-oxo-1,4,5,6-tetrahydro-2H-pyrano[3,4-c]isoquinolin-1-yl)-N-methylisoindoline-2-carboxamide] — 7.2-fold higher, 13 µM
- CN(C(=O)Nc1ccc(F)c(Cl)c1)C1COCc2[nH]c(=O)c3cc(C#N)ccc3c21 (stereo not shown) [Compound 89, 3-(3-Chloro-4-fluorophenyl)-1-(8-cyano-6-oxo-1,4,5,6-tetrahydro-2H-pyrano[3,4-c]isoquinolin-1-yl)-1-methylurea] — 1.6-fold lower, 1.1 µM
- CN(C(=O)Nc1ccc(F)c(Cl)c1)C1CCc2[nH]c(=O)c3ccccc3c21 (stereo not shown) [Compound 12, 3-(3-Chloro-4-fluorophenyl)-1-methyl-1-(5-oxo-2,3,4,5-tetrahydro-1H-cyclopenta[c]isoquinolin-1-yl)urea] — 20-fold lower, 0.09 µM
- CN(C(=O)Nc1ccc(F)c(Cl)c1)[C@@H]1COCc2[nH]c(=O)c3cc(F)c(F)cc3c21 (single isomer, unassigned) [Compound 72] — 180-fold lower, 0.01 µM
- CC(C)CN(C(=O)Nc1ccc(F)c(F)c1)C1CCc2[nH]c(=O)cc(C(F)(F)F)c21 (stereo not shown) [Compound 5, 3-(3,4-Difluorophenyl)-1-isobutyl-1-(2-oxo-4-(trifluoromethyl)-2,5,6,7-tetrahydro-1H-cyclopenta[b]pyridin-5-yl)urea] — 1.6-fold lower, 1.1 µM

same assay, conditions: Hepatitis B virus, HepDE19, 168 h, read-out: DE-19bDNA EC50 (uM), inhibition of rcDNA formation in HepDE19 cells (HepG2 derived), Tet-free medium, 7 day incubation, Quantigene 2.0 bDNA readout, top concentration 25 μM

CN(C(=O)N1Cc2ccc(C(F)(F)F)cc2C1)C1CNCc2[nH]c(=O)c3cc(F)c(F)cc3c21 (single isomer, unassigned) [Compound 231, N-(8,9-Difluoro-6-oxo-1,2,3,4,5,6-hexahydrobenzo[c][1,7]naphthyridin-1-yl)-N-methyl-5-(trifluoromethyl)isoindoline-2-carboxamide] showed an EC50 of no less than 25 µM.

same assay, conditions: inhibition of rcDNA formation in HepDE19 cells (HepG2 derived), Tet-free medium, 7 day incubation, Quantigene 2.0 bDNA readout, top concentration 25 μM; read-out: DE-19bDNA EC50

Point of comparison: CN(C(=O)Nc1ccc(F)c(F)c1)C1CNCc2[nH]c(=O)c3cc(F)c(F)cc3c21 (single isomer, unassigned) [Compound 192, 1-(8,9-Difluoro-6-oxo-1,2,3,4,5,6-hexahydrobenzo[c][1,7]naphthyridin-1-yl)-3-(3,4-difluorophenyl)-1-methylurea], EC50 0.04 µM. Against it:
- CN(C(=O)Nc1ccc(F)c(Cl)c1)C1CS(=O)(=O)Cc2[nH]c(=O)c3cc(F)c(F)cc3c21 (single isomer, unassigned) [Compound 204, 3-(3-Chloro-4-fluorophenyl)-1-(8,9-difluoro-3,3-dioxido-6-oxo-1,4,5,6-tetrahydro-2H-thiopyrano[3,4-c]isoquinolin-1-yl)-1-methylurea] — 35-fold higher, 1.4 µM
- CN(C(=O)Nc1ccc(F)c(Cl)c1)C1COCc2[nH]c(=O)c3c(c21)COCC3 (single isomer, unassigned) [Compound 84, 3-(3-Chloro-4-fluorophenyl)-1-methyl-1-(5-oxo-4,5,6,7,9,10-hexahydro-1H,3H-dipyrano[3,4-b:3′,4′-d]pyridin-10-yl)urea] — 21-fold higher, 0.83 µM
- CN(C(=O)Nc1cc(Cl)c(F)c(Cl)c1)C1COCc2[nH]c(=O)c3cc(F)ccc3c21 (single isomer, unassigned) [Compound 98, 3-(3,5-Dichloro-4-fluorophenyl)-1-(8-fluoro-6-oxo-1,4,5,6-tetrahydro-2H-pyrano[3,4-c]isoquinolin-1-yl)-1-methylurea] — within 1.5-fold, 0.03 µM
- CN(C(=O)Nc1ccc(F)c(F)c1)C1CCCc2[nH]c(=O)c3c(c21)CCCC3 (single isomer, unassigned) [Compound 49, 3-(3,4-Difluorophenyl)-1-methyl-1-(6-oxo-1,2,3,4,5,6,7,8,9,10-decahydrophenanthridin-1-yl)urea] — 4-fold higher, 0.16 µM
- CN1Cc2[nH]c(=O)c3cc(F)ccc3c2C(N(C)C(=O)Nc2ccc(F)c(C#N)c2)C1 (single isomer, unassigned) [Compound 163, 3-(3-Cyano-4-fluorophenyl)-1-(8-fluoro-3-methyl-6-oxo-1,2,3,4,5,6-hexahydrobenzo[c][1,7]naphthyridin-1-yl)-1-methylurea] — 580-fold higher, 23 µM
- CN(C(=O)Nc1ccc(F)c(Cl)c1)C1C[S+]([O-])Cc2[nH]c(=O)c3cc(F)ccc3c21 (single isomer, unassigned) [Compound 196, 3-(3-Chloro-4-fluorophenyl)-1-(8-fluoro-3-oxido-6-oxo-1,4,5,6-tetrahydro-2H-thiopyrano[3,4-c]isoquinolin-1-yl)-1-methylurea] — 550-fold higher, 22 µM
- CN(C(=O)Nc1ccc(F)c(F)c1)C1COCc2[nH]c(=O)c3c(c21)COCC3 (single isomer, unassigned) [Compound 85, 3-(3,4-Difluorophenyl)-1-methyl-1-(5-oxo-1,3,4,5,6,7,9,10-octahydrodipyrano[3,4-b:3′,4′-d]pyridin-10-yl)urea] — 110-fold higher, 4.5 µM
- O=C(Nc1ccc(F)c(Cl)c1)N(CCCO)C1COCc2[nH]c(=O)c3cc(F)ccc3c21 (single isomer, unassigned) [Compound 110, 3-(3-Chloro-4-fluorophenyl)-1-(8-fluoro-6-oxo-1,4,5,6-tetrahydro-2H-pyrano[3,4-c]isoquinolin-1-yl)-1-(3-hydroxypropyl)urea] — 2-fold lower, 0.02 µM
- O=C(Nc1ccc(F)c(Cl)c1)N(CCCO)C1COCc2[nH]c(=O)c3cc(F)ccc3c21 (single isomer, unassigned) [Compound 109, 3-(3-Chloro-4-fluorophenyl)-1-(8-fluoro-6-oxo-1,4,5,6-tetrahydro-2H-pyrano[3,4-c]isoquinolin-1-yl)-1-(3-hydroxypropyl)urea] — 16-fold higher, 0.62 µM
- CN(C(=O)Nc1cc(Cl)c(F)c(Cl)c1)C1COCc2[nH]c(=O)c3cc(F)ccc3c21 (single isomer, unassigned) [Compound 97, 3-(3,5-Dichloro-4-fluorophenyl)-1-(8-fluoro-6-oxo-1,4,5,6-tetrahydro-2H-pyrano[3,4-c]isoquinolin-1-yl)-1-methylurea] — 82-fold higher, 3.3 µM
- CN(C(=O)Nc1ccc(F)c(C(F)F)c1)C1CNCc2[nH]c(=O)c3cc(F)c(F)cc3c21 (single isomer, unassigned) [Compound 217, 1-(8,9-Difluoro-6-oxo-1,2,3,4,5,6-hexahydrobenzo[c][1,7]naphthyridin-1-yl)-3-(3-(difluoromethyl)-4-fluorophenyl)-1-methylurea] — the same, 0.04 µM
- CN(C(=O)Nc1ccc(F)c(C(F)F)c1)C1COCc2nc(NCCO)c3cc(F)c(F)cc3c21 (single isomer, unassigned) [Compound 237, 1-(8,9-Difluoro-6-((2-hydroxyethyl)amino)-1,4-dihydro-2H-pyrano[3,4-c]isoquinolin-1-yl)-3-(3-(difluoromethyl)-4-fluorophenyl)-1-methylurea] — 66-fold higher, 2.62 µM

Source: US20230108906A1, “SUBSTITUTED BICYCLIC AND TRICYCLIC UREAS AND AMIDES, ANALOGUES THEREOF, AND METHODS USING SAME” (Arbutus Biopharma Corporation, priority 2019, published 2023)
